Experimental findings from ChEMBL document CHEMBL5223118, “Magnet for the Needle in Haystack: "Crystal Structure First" Fragment Hits Unlock Active Chemical Matter Using Targeted Exploration of Vast Chemical Spaces” (J Med Chem, 2022) are described below.

Structures are written as SMILES.

As usually defined, the Ki is a dissociation constant, usually derived from enzyme kinetics or from competition with a known ligand. The low end stands for a stronger hold on the target, the high end for a looser hold on the target.

The experiment addresses cAMP-dependent protein kinase (PKA) (Homo sapiens, UniProt P22694+P17612+P22612). Briefly: Inhibition of PKA (unknown origin). It is filed as protein assay.
As for `COCC1CN=C(N2CCN(c3ccncc3Cl)CC2)N1.I` (stereo unspecified), the Ki was 139.3 µM. In turn, `CC1(CS(=O)(=O)N2CCc3c(sc(N)c3C#N)C2)CC1(F)F` (stereo unspecified) came in with a Ki of 4743 µM. In turn, `CCn1cc(-c2csc3c(=O)[nH]ccc23)cn1` showed a Ki of 1423 µM. The compound `N[C@@H]1CCN(Cc2cccc(-c3ccc4c(O)nccc4c3)c2)C1` registered a Ki of 3 µM. Against the preceding compound, the Ki is about 470-fold lower. Consider `N#Cc1cc(-c2cccc(CC(N)CC3CC3)c2)ccc1N` (stereo unspecified), for which the Ki was determined as 540 µM. Turning to `Cc1cc(C(=O)Nc2ccncc2)c(C)o1`, the Ki was 20000 µM. Against the preceding compound, the Ki is about 37-fold higher. Regarding `COCC1CCC(NC(=O)c2ccc3c(c2)CCNC3=O)CC1` (stereo unspecified), the inhibitory constant (Ki) is 6219 µM. Compared with the last compound, the Ki is about 3.2-fold lower.

Compound `CN(C)Cc1ccc(F)c(-c2ccc3c(C#N)c(N)[nH]c3c2)c1` showed a Ki of 174.4 µM. This Ki is about 36-fold lower than that of the compound before.

`N#Cc1cc(-c2cccc(C3COCCN3)c2)ccc1N` (stereo unspecified) gave an inhibition constant (Ki) of 955 µM. `COc1cc(NCCNc2ccnc(N)c2C#N)cc(OC)c1` gave a Ki of 588 µM. This Ki is about 1.6-fold lower than that of the compound before. In turn, `NC1CCN(Cc2cccc(-c3ccc4c(O)nccc4c3)c2)C1` (racemic) had an inhibition constant (Ki) of 0.744 µM. With `NC1C=C(C(F)(F)F)C=NC1=O` (stereo unspecified), the inhibitory constant (Ki) is 10000 µM.

Compound `N#Cc1c(N)ccnc1C=C1CCNCC1` displayed an inhibitory constant (Ki) of 6379 µM.

Compound `N#Cc1cc(-c2cccc(C3(CN)CCOCC3)c2)ccc1N` yielded a Ki of 390.2 µM. This Ki is about 16-fold lower than that of the compound before. The compound `N#Cc1c(N2CCCC2)n[nH]c1N` gave an inhibition constant Ki of 5000 µM. The same measure for `N[C@H]1CCN(Cc2cccc(-c3ccc4c(O)nccc4c3)c2)C1`: 0.74 µM. In the case of `O=c1[nH]ccc2cc(-c3cccc(Cn4cccn4)c3)ccc12`, the Ki was 154.7 µM. With `COC1(CNC(=O)N2CCN(c3ccncc3C)CC2)CCCS(=O)(=O)C1` (stereo unspecified) the figure was 354.3 µM. `N#Cc1cc(-c2cccc(C3CNCCO3)c2)ccc1N` (stereo unspecified) returned an inhibition constant (Ki) of 2101 µM. With `N#Cc1c(N)ccc(/C=C2/CCCNC2)c1Cl` the figure was 85 µM. With `NCCC1CN(C(=O)c2ccc(C(N)=O)cc2)c2ccccc21` (stereo unspecified), the Ki turned out to be 5000 µM.
